Each molecule was assayed against T1, vitamin D binding protein (Homo sapiens, UniProt P02774) (assay: BIACORE assessment of release of vitamin D binding protein from immobilised biotinylated 25-hydroxyvitamin D3). Conditions: BIACORE streptavidin chip saturated with biotinylated 25-hydroxyvitamin D3 and vitamin D binding protein; release monitored for 3 min.
T1 sequence (P02774 17-474): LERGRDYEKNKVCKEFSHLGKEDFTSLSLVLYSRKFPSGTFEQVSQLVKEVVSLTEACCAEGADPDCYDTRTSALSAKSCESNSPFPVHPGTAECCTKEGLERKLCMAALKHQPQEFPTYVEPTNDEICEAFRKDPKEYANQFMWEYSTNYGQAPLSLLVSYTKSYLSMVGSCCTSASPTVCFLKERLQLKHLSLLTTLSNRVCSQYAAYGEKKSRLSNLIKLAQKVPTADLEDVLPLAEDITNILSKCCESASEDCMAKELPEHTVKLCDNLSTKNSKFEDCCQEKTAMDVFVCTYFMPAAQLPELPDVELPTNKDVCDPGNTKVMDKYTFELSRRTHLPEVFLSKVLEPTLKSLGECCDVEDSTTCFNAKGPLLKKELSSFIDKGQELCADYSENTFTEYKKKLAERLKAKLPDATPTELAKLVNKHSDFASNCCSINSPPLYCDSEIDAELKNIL
Excerpt: For this assessment a streptavidin-coated BIACORE chip is used. This streptavidin-chip is then saturated with a biotinylated 25-hydroxyvitamin D3 and thereafter with vitamin D binding protein. […] The BIACORE system is used to assess whether a reagent considered to be a potential candidate for releasing vitamin D from vitamin D binding protein will be efficient in releasing of vitamin D binding protein to a vitamin D metabolite. A sensor chip coated with streptavidin (Sensor Chip SA, BIACORE AB, BR-1000-32) is used for immobilization of a biotinylated vitamin D metabolite of interest. The assessment is best performed by use of the vitamin D metabolite 25OH vitamin D3. The sensor chip is first incubated with a saturating concentration of biotinylated 25-hydroxyvitamin D3, Then the chip is loaded with a saturating amount of vitamin D binding protein. Then the vitamin D binding protein saturated chip is incubated with a sodium chloride solution one the one hand and a candidate vitamin D releasing reagent in various concentrations on the other hand. The release of vitamin D binding protein is monitored for 3 min. A candidate vitamin D releasing reagent causing the release of at least […] vitamin D binding protein in the above system is appropriate to meet the minimal requirements for a vitamin D releasing reagent used in the detection of a vitamin D metabolite in a sample of serum or plasma 25-hydroxyvitamin D3. Between each run the 25-hydroxyvitamin D3-coated SA-chip is regenerated by washing it with 10 mM Gly/HCl pH 1.7 for 1 min. As non-specific control a reference flow cell coated with biotin on the same chip was used. The data of the reference flow cell are subtracted from those of the biospecific flow cell. Thus specific data free of non-specific effects are obtained.

Concentration of releasing reagent required for release off >95% vitamin D binding protein from 25OH-vitamin D3 [% volume/volume] | Molecule
3 | CCCCCCCC[n+]1ccccc1.[Cl-] [NOP-Cl, N-Octylpyridinium-chloride]
6 | CCCC[n+]1ccc(C)cc1.F[B-](F)(F)F [BMP-TFB, 1-Butyl-4-methyl-pyridinium-tetrafluoroborate]
8 | CCCCn1cc[n+](C)c1.F[B-](F)(F)F [BMI-TFB, 1-Butyl-3-methyl-imidazolium-tetrafluoroborate]
3 | CCCCCCCC[N+]1(C)CCCC1.[Cl-] [MOP-Cl, 1-Methyl-1-octyl-pyrrolidinium-chloride]
6 | CCCCCC[n+]1ccccc1.[Cl-] [HP-Cl, 1-Hexylpyridinium-chloride]

Molecule | Concentration of releasing reagent required for release off >95% vitamin D binding protein from 25OH-vitamin D3 [% volume/volume]
CCCC[n+]1cccc(C)c1.[Cl-] [BMP-Cl, 1-Butyl-3-methyl-pyridinium-chloride] | 12
1-Butyl-3-methyl-imidazolium-octylsulfate [BMI-OSO4] | 0.5
CCCC[n+]1cccc(C)c1.N#C[S-] [BMP-SCN, 1-Butyl-3-methyl-pyridinium-thiocyanate] | 6

Reference: patent US8003400B2, “Measurement of vitamin D” (Roche Diagnostics Operations, Inc., priority 2006, dated 2011)
